Data as given in patent US9261498B2, “Biomarker for sensitivity to mTOR inhibitor therapy in kidney cancer” (The Regents of the University of California, priority 2005, dated 2016).
Entries after “also recorded” stand apart in the source; their conditions may differ.

System: HIF-1α, HIF-2α, GLUT-1, CA-IX
Assay: Immunoblot of HIF and target proteins in VHL knockdown cells expressing HIF-1α (P564A) / HIF-2α (P405A; P531A) mutants
Type: cell-based, human
Details: SN12C VHL knockdown cells with HIF mutants lacking 5'TOP, 24 hours
Procedure: FIGS. 4A-4C. Rescue of CCI-779 growth suppression by HIF-1-α and HIF-2-α prolyl hydcroxylase mutants. SN12C-CSCG-VHLshRNA cells stably infected with the prolyl hydroxylation defective cDNA mutants p-Babe-puro-HA-HIF-1α (P564A), HIF-2α (P405A; P531A) or backbone vector were treated with CCI-779 or vehicle and harvested 24 hours later. (a) Lysates were subjected to immunoblotting for HIF-1α, HIF-2α, GLUT-1, CA-IX, p-eIF4G, p-S6 and β-Actin as loading control. (b) SN12C-VHLshRNA, SN12C-VHLshRNA-HIF-1α mutant, SN12C-VHLshRNA-HIF-2α mutant cells (1×10^5) were cultured in 10% serum rich media, in the presence of vehicle, 1 or 10 nM of CCI-779 for 5 days. Cell growth was measured by cell counts (n=3). […]
Cells and xenograft tumors were lysed in ECB lysis buffer (see, e.g. Kondo et al., Cancer Cell 1, 237-46 (2002)) or high-detergent buffer (2% SDS), (see, e.g. Chen et al., Nat Med 10, 33-9 (2004)), respectively, supplemented with complete protease and phosphatase inhibitor cocktails (Calbiochem). […] Bound antibody was detected using enhanced chemiluminescence (ECL, Amersham). For VEGF ELISA quantification, cells were plated in 6 well plates (1×10^5 per well). […] Thirty-six hours later, VEGF ELISA (R&D Systems) was performed according to the manufacturer's instructions, using a Fisher Plate reader. […]

Compound: CO[C@H]1C[C@@H]2CC[C@@H](C)[C@@](O)(O2)C(=O)C(=O)N2CCCC[C@H]2C(=O)O[C@H]([C@H](C)C[C@@H]2CC[C@@H](OC(=O)C(C)(CO)CO)[C@H](OC)C2)CC(=O)[C@H](C)/C=C(\C)[C@@H](O)[C@@H](OC)C(=O)[C@H](C)C[C@H](C)/C=C/C=C/C=C/1C [CCI-779]
- levels of HIF mutants and downstream targets GLUT-1 and CA-IX: stably expressed in the presence or absence of CCI-779; also recorded: not affected
